Several values for one entry are separate records, joined by “and”; a condition that tells them apart may be missing. Equal values may be shown once. Toxic doses and inconclusive results are not listed.
Tested on: P388 leukemia ip, CD2F1 mice, survival T/C
Test: NCI In Vivo Anticancer Drug Screen. Data for tumor model P388 Leukemia (intraperitoneal) in CD2F1 (CDF1) mice
Settings: endpoint: median survival time, higher = longer survival
Outline: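 Mice carrying the transplanted tumor received test compound or vehicle. Survival was recorded in each group, and the value is the treated-group measurement divided by that of the vehicle-treated control group.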

[1] = dose: 100.0 mg/kg/injection, schedule: Q01DX001 (ip), vehicle: saline with Tween-80
[2] = dose: 200.0 mg/kg/injection, schedule: Q01DX001 (ip), vehicle: saline with Tween-80
[3] = dose: 400.0 mg/kg/injection, schedule: Q01DX001 (ip), vehicle: saline with Tween-80
[4] = dose: 60.0 mg/kg/injection, schedule: Q01DX005 (ip), vehicle: saline with Tween-80
[5] = dose: 120.0 mg/kg/injection, schedule: Q01DX005 (ip), vehicle: saline with Tween-80
[6] = dose: 50.0 mg/kg/injection, schedule: Q01DX005 (ip), vehicle: saline with Tween-80
[7] = dose: 100.0 mg/kg/injection, schedule: Q01DX005 (ip), vehicle: saline with Tween-80
[8] = dose: 200.0 mg/kg/injection, schedule: Q01DX005 (ip), vehicle: saline with Tween-80
[9] = dose: 50.0 mg/kg/injection, schedule: Q01DX009 (ip), vehicle: Klucel (hydroxypropylcellulose) (HPC)
[10] = dose: 100.0 mg/kg/injection, schedule: Q01DX009 (ip), vehicle: Klucel (hydroxypropylcellulose) (HPC)
[11] = dose: 200.0 mg/kg/injection, schedule: Q01DX009 (ip), vehicle: Klucel (hydroxypropylcellulose) (HPC)
[12] = dose: 240.0 mg/kg/injection, schedule: Q01DX005 (ip), vehicle: saline with Tween-80
[13] = dose: 50.0 mg/kg/injection, schedule: Q01DX009 (ip), vehicle: saline
[14] = dose: 100.0 mg/kg/injection, schedule: Q01DX009 (ip), vehicle: saline
[15] = dose: 200.0 mg/kg/injection, schedule: Q01DX009 (ip), vehicle: saline
[16] = dose: 120.0 mg/kg/injection, schedule: Q01DX005 (ip), vehicle: Klucel (hydroxypropylcellulose) (HPC)
[17] = dose: 25.0 mg/kg/injection, schedule: Q01DX009 (ip), vehicle: saline with Tween-80
[18] = dose: 50.0 mg/kg/injection, schedule: Q01DX009 (ip), vehicle: saline with Tween-80
[19] = dose: 100.0 mg/kg/injection, schedule: Q01DX009 (ip), vehicle: saline with Tween-80

## Cc1ccc(/C=N/N=c2/sc3ccccc3n2CC(=O)O)cc1
[1]
  T/C: 98 % of control
[2]
  T/C: 92 % of control
[3]
  T/C: 89 % of control

## O=C1NNC(c2ccccc2)=Nc2ccccc21
dose: 100.0 mg/kg/injection, schedule: Q04DX002 (ip), vehicle: saline with Tween-80
  T/C: 96 % of control
dose: 200.0 mg/kg/injection, schedule: Q04DX002 (ip), vehicle: saline with Tween-80
  T/C: 96 % of control
dose: 400.0 mg/kg/injection, schedule: Q04DX002 (ip), vehicle: saline with Tween-80
  T/C: 94 % of control

## COc1ccc2c(c1)OC(C)(C)[C@H](c1ccc(O)cc1)[C@@H]2c1ccccc1
[4]
  T/C: 90 % of control
[5]
  T/C: 90 % of control

## CCNc1nc(NC(C)C)nc(N2CCc3ccccc3C2)n1
[6]
  T/C: 106 % of control
[7]
  T/C: 117 % of control
[8]
  T/C: 110 % of control

## C/C(=N\Nc1nc2ccccc2s1)c1ccccn1
dose: 12.5 mg/kg/injection, schedule: Q01DX005 (ip), vehicle: saline with Tween-80
  T/C: 98 % of control
dose: 25.0 mg/kg/injection, schedule: Q01DX005 (ip), vehicle: saline with Tween-80
  T/C: 93 % of control
[6]
  T/C: 101 % of control and 91 % of control
[7]
  T/C: 104 % of control

## N#Cc1cc(Cl)ccc1N=Cc1c(Cl)cccc1Cl
[9]
  T/C: 100 % of control
[10]
  T/C: 105 % of control
[11]
  T/C: 100 % of control

## Cc1ccc(NC(=S)SCc2ccccc2)cc1Cl
dose: 100.0 mg/kg/injection, schedule: Q04DX002 (ip), vehicle: saline
  T/C: 98 % of control
dose: 200.0 mg/kg/injection, schedule: Q04DX002 (ip), vehicle: saline
  T/C: 100 % of control
dose: 400.0 mg/kg/injection, schedule: Q04DX002 (ip), vehicle: saline
  T/C: 106 % of control

## CC(CCl)OC(=O)Nc1cccc(C(F)(F)F)c1 (configuration not stated)
[4]
  T/C: 106 % of control
[5]
  T/C: 102 % of control
[12]
  T/C: 107 % of control

## OCC[N+]12CN3CN(CN(C3)C1)C2
dose: 25.0 mg/kg/injection, schedule: Q01DX009 (ip), vehicle: saline
  T/C: 108 % of control
[13]
  T/C: 110 % of control
[14]
  T/C: 111 % of control
dose: 178.0 mg/kg/injection, schedule: Q01DX009 (ip), vehicle: saline
  T/C: 118 % of control
[15]
  T/C: 118 % of control
dose: 266.0 mg/kg/injection, schedule: Q01DX009 (ip), vehicle: saline
  T/C: 118 % of control

## CCOC(=O)/C=C/C(=O)NN
dose: 12.5 mg/kg/injection, schedule: Q01DX009 (ip), vehicle: water
  T/C: 89 % of control
dose: 25.0 mg/kg/injection, schedule: Q01DX009 (ip), vehicle: water
  T/C: 100 % of control
dose: 50.0 mg/kg/injection, schedule: Q01DX009 (ip), vehicle: water
  T/C: 99 % of control and 102 % of control and 93 % of control
dose: 100.0 mg/kg/injection, schedule: Q01DX009 (ip), vehicle: water
  T/C: 107 % of control and 109 % of control and 97 % of control
dose: 200.0 mg/kg/injection, schedule: Q01DX009 (ip), vehicle: water
  T/C: 104 % of control and 109 % of control

## Cc1ccc(Cl)cc1NC(=O)N(C)CCO
dose: 60.0 mg/kg/injection, schedule: Q01DX005 (ip), vehicle: Klucel (hydroxypropylcellulose) (HPC)
  T/C: 103 % of control
[16]
  T/C: 103 % of control
dose: 240.0 mg/kg/injection, schedule: Q01DX005 (ip), vehicle: Klucel (hydroxypropylcellulose) (HPC)
  T/C: 94 % of control

## N#CC1(C#N)CC1c1ccccc1 (configuration not stated)
[4]
  T/C: 105 % of control
[5]
  T/C: 96 % of control
[12]
  T/C: 96 % of control

## CCOC(=O)c1ccc(NC(=S)N(CCC#N)C2CCCCC2)cc1
[9]
  T/C: 93 % of control
[10]
  T/C: 102 % of control
[11]
  T/C: 98 % of control

## CC1=NCc2nn(C)nc2N1
[13]
  T/C: 100 % of control
[14]
  T/C: 100 % of control
[15]
  T/C: 97 % of control

## c1ccc2c(c1)Sc1cnccc1N2CC1CO1 (configuration not stated)
[14]
  T/C: 109 % of control
[15]
  T/C: 100 % of control
dose: 400.0 mg/kg/injection, schedule: Q01DX009 (ip), vehicle: saline
  T/C: 100 % of control

## COc1ccc(CN2CCCN(/N=C/c3c4c(O)c5c(O)c(C)c6c(c5c3O)C(=O)C(C)(O/C=C/C(OC)C(C)C(OC(C)=O)C(C)C(O)C(C)C(O)C(C)/C=C/C=C(C)C(=O)N4)O6)CC2)cc1 (configuration not stated)
dose: 12.5 mg/kg/injection, schedule: Q01DX009 (ip), vehicle: saline with Tween-80
  T/C: 109 % of control
[17]
  T/C: 117 % of control
[18]
  T/C: 103 % of control and 97 % of control
[19]
  T/C: 100 % of control
dose: 200.0 mg/kg/injection, schedule: Q01DX009 (ip), vehicle: saline with Tween-80
  T/C: 97 % of control

## C(=N\N1CCCCCC1)/c1ccc2c(c1)OCO2
[17]
  T/C: 90 % of control
[18]
  T/C: 95 % of control
[19]
  T/C: 90 % of control

## COc1ccc(C2NC(=S)NC(=O)C2C#N)cc1OC (configuration not stated)
[9]
  T/C: 98 % of control
[10]
  T/C: 98 % of control
[11]
  T/C: 95 % of control

## O=C1CSC(=S)N1c1cc(Cl)c(Cl)cc1Cl
dose: 50.0 mg/kg/injection, schedule: Q01DX009 (ip), vehicle: suspension in saline
  T/C: 102 % of control
dose: 100.0 mg/kg/injection, schedule: Q01DX009 (ip), vehicle: suspension in saline
  T/C: 100 % of control
dose: 200.0 mg/kg/injection, schedule: Q01DX009 (ip), vehicle: suspension in saline
  T/C: 93 % of control

## Nc1nc(N)c2cc(C=O)ccc2n1
dose: 0.39 mg/kg/injection, schedule: Q01DX009 (ip), vehicle: distilled water + Tween-80
  T/C: 100 % of control
dose: 0.78 mg/kg/injection, schedule: Q01DX009 (ip), vehicle: distilled water + Tween-80
  T/C: 101 % of control
dose: 1.56 mg/kg/injection, schedule: Q01DX009 (ip), vehicle: distilled water + Tween-80
  T/C: 110 % of control
dose: 3.13 mg/kg/injection, schedule: Q01DX009 (ip), vehicle: distilled water + Tween-80
  T/C: 100 % of control
dose: 6.25 mg/kg/injection, schedule: Q01DX009 (ip), vehicle: distilled water + Tween-80
  T/C: 109 % of control

## CN(C)P1(=S)OCC(C(C)(C)C)CN1C (configuration not stated)
dose: 100.0 mg/kg/injection, schedule: Q04DX003 (ip), vehicle: saline with Tween-80
  T/C: 102 % of control
dose: 200.0 mg/kg/injection, schedule: Q04DX003 (ip), vehicle: saline with Tween-80
  T/C: 112 % of control

## C/C(=C/Cc1ccccc1)C(=O)O
[1]
  T/C: 108 % of control
[2]
  T/C: 108 % of control
[3]
  T/C: 99 % of control

## CS(=O)(=O)Nc1ccc(Nc2c3ccccc3nc3cc(Cl)ccc23)cc1
dose: 100.0 mg/kg/injection, schedule: Q04DX003 (ip), vehicle: saline
  T/C: 181 % of control
dose: 200.0 mg/kg/injection, schedule: Q04DX003 (ip), vehicle: saline
  T/C: 240 % of control

## Clc1ccc2c(NCCCC3CCCN4CCCCC34)ccnc2c1 (configuration not stated)
dose: 50.0 mg/kg/injection, schedule: Q01DX005 (ip), vehicle: Klucel (hydroxypropylcellulose) (HPC)
  T/C: 99 % of control
dose: 100.0 mg/kg/injection, schedule: Q01DX005 (ip), vehicle: Klucel (hydroxypropylcellulose) (HPC)
  T/C: 98 % of control

## C=C1C(=O)C23C(OC(=O)CCCCCCCCCCC)C1CCC2C12COC3(O)C(O)C1C(C)(C)CCC2O (configuration not stated)
dose: 3.75 mg/kg/injection, schedule: Q01DX009 (ip), vehicle: saline with Tween-80
  T/C: 98 % of control
dose: 7.5 mg/kg/injection, schedule: Q01DX009 (ip), vehicle: saline with Tween-80
  T/C: 103 % of control
dose: 15.0 mg/kg/injection, schedule: Q01DX009 (ip), vehicle: saline with Tween-80
  T/C: 95 % of control
dose: 30.0 mg/kg/injection, schedule: Q01DX009 (ip), vehicle: saline with Tween-80
  T/C: 100 % of control

## CCOc1ccccc1NC(=O)CC(=O)N1N=C(c2ccccc2)C(N=Nc2ccc(S(N)(=O)=O)cc2)C1=O (configuration not stated)
[6]
  T/C: 110 % of control
[7]
  T/C: 102 % of control
[8]
  T/C: 102 % of control

## COC(=O)c1ccc(C)c(NS(=O)(=O)c2ccc3c(c2)c(=O)sn3C)c1
[6]
  T/C: 102 % of control
[7]
  T/C: 110 % of control
[8]
  T/C: 112 % of control

## O=C(/C=C1\Nc2ccccc2N(C(=O)c2ccccc2)C1c1ccccc1)c1ccccc1 (configuration not stated)
dose: 7.5 mg/kg/injection, schedule: Q01DX005 (ip), vehicle: Klucel (hydroxypropylcellulose) (HPC)
  T/C: 103 % of control
dose: 15.0 mg/kg/injection, schedule: Q01DX005 (ip), vehicle: Klucel (hydroxypropylcellulose) (HPC)
  T/C: 88 % of control
dose: 30.0 mg/kg/injection, schedule: Q01DX005 (ip), vehicle: Klucel (hydroxypropylcellulose) (HPC)
  T/C: 88 % of control and 91 % of control
[16]
  T/C: 88 % of control

From PubChem BioAssay AID330 (DTP/NCI, 2004)
